According to US20050043315A1, “Aminopyrimidine compounds, processes for their preparation and pharmaceutical compositions containing them” (priority 2002, published 2005):

Key:
ddY mice = experiment: Anticatalepsy activity in mouse (haloperidol-induced catalepsy); type: in vivo; conditions: 3.2 mg/kg orally, ddY mice n=7; haloperidol 0.32 mg/kg i.p. 30 min after compound; measured 30 min after injection
Description: The test compound (3.2 mg/kg) was administered orally with ddY mice(n=7). Then, haloperidol (0.32 mg/kg) was injected intraperitoneally 30 min. after the administration of the compound. Thirty min. after the injection, the cataleptic responses of mice were measured. The forelimbs of each mouse were placed on a 3 cm high, 3 mm wide horizontal bar, and the duration of cataleptic posture was measured for up to 30 sec.

human A1 receptor = target: T1, human A1 receptor (Homo sapiens, UniProt P30542); experiment: Adenosine antagonistic activity, radioligand binding with [3H]DPCPX; conditions: [3H]DPCPX 4.5 nM
T1 sequence (P30542 1-326): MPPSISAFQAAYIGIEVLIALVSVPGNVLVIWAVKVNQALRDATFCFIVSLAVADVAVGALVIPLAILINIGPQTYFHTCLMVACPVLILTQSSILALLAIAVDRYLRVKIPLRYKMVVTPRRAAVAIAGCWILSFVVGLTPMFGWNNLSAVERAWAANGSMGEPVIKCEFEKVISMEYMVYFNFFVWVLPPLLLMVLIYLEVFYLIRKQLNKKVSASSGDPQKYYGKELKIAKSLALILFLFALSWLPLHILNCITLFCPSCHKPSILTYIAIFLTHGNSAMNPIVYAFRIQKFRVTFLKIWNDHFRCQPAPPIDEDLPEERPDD
Description: (§1) The adenosine antagonistic activity [Ki(nM)] of the test compound was examined by radioligand binding techniques using 8-cyclopentyl-1,3-dipropylxanthine, [dipropyl-2,3-^3H(N)] ([^3H]DPCPX, 4.5 nM) for human A1 receptor and [^3H]CGS 21680 (20 nM) for human A2a receptor.

human A2a receptor = human A2a receptor (Homo sapiens, UniProt P29274); experiment: Adenosine antagonistic activity, radioligand binding with [3H]CGS 21680; conditions: [3H]CGS 21680 20 nM
Description: as §1

human A2a receptor, sequence (P29274 whole entry): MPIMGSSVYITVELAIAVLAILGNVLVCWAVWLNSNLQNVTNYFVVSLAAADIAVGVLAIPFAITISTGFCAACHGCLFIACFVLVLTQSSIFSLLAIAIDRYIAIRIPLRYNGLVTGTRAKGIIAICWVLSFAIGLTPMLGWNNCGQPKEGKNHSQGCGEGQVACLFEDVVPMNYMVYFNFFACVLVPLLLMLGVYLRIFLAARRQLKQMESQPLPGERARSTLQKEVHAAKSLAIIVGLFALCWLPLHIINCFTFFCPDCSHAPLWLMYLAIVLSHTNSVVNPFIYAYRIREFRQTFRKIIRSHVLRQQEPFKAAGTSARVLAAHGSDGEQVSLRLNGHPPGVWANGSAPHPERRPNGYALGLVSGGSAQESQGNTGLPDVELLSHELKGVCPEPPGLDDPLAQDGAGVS

melting point [°C] | Ki (human A1 receptor) [nM] | Ki (human A2a receptor) [nM] | Compound | Manifestation rate of catalepsy (number of mouse) (ddY mice)
> 280 | 11.3 | 3.85 | Nc1ncc(-c2ccc(=O)[nH]n2)c(-c2ccccc2)n1 [Example 1, 6-(2-Amino-4-phenyl-5-pyrimidinyl)-3(2H)-pyridazinone] | 4/7
255 to 256 | 3.14 | 4.35 | CCn1nc(-c2cnc(N)nc2-c2ccccc2)ccc1=O [Example 4, 6-(2-Amino-4-phenyl-5-pyrimidinyl)-2-ethyl-3(2H)-pyridazinone] | 0/7
209 to 210 | 6.47 | 2.09 | CC(=O)Nc1ncc(-c2ccc(=O)n(C(C)C)n2)c(-c2ccccc2)n1 [Example 7, N-[5-(1-Isopropyl-6-oxo-1,6-dihydro-3-pyridazinyl)-4-phenyl-2-pyrimidinyl]acetamide] | 0/7
143 to 144.5 | 10.8 | 7.38 | CC(C)n1nc(-c2cnc(NCc3ccccn3)nc2-c2ccccc2)ccc1=O [Example 18, 2-Isopropyl-6-{4-phenyl-2-[(2-pyridinylmethyl)amino]-5-pyrimidinyl}-3(2H)-pyridazinone] | 0/7
215 | 7.74 | 1.38 | CC(C)n1nc(-c2cnc(N)nc2-c2ccco2)ccc1=O [Example 47, 6-[2-Amino-4-(2-furyl)-5-pyrimidinyl]-2-isopropyl-3(2H)-pyridazinone] | 1/7
231 to 232.5 | 1.75 | 1.41 | CC(C)n1nc(-c2c(F)nc(N)nc2-c2ccccc2)ccc1=O [Example 136, 6-(2-Amino-4-fluoro-6-phenyl-5-pyrimidinyl)-2-isopropyl-3(2H)-pyridazinone] | 0/7
147 | 2.36 | 1.7 | COCCOc1ccc(-c2nc(N)ncc2-c2ccc(=O)n(C(C)C)n2)cc1 [Example 212, 6-{2-Amino-4-[4-(2-methoxyethoxy)phenyl]-5-pyrimidinyl}-2-isopropyl-3(2H)-pyridazinone] | 0/7
